This is an account of results in ChEMBL document CHEMBL3045439, “Isoforms of the heteropteran Nezara viridula ecdysone receptor: protein characterisation, RH5992 insecticide binding and homology modelling” (Pest Manag Sci, 2011).

Assay [1] addresses T1, Ecdysone receptor (Anthonomus grandis, UniProt B8RG26+Q4W6C8).
T1 sequence (B8RG26 whole entry): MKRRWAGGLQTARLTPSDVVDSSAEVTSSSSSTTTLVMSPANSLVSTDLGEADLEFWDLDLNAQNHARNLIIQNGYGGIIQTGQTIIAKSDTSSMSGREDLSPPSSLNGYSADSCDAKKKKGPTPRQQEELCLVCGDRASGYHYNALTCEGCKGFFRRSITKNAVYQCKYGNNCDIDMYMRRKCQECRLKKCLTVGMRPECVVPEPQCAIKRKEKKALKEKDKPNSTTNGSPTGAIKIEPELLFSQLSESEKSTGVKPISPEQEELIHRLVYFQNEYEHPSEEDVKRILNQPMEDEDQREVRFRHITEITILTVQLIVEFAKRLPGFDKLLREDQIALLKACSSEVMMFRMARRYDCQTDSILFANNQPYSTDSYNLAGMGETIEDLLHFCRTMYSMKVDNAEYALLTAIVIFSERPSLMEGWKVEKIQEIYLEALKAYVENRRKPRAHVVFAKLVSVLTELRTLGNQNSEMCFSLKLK
T1 sequence (Q4W6C8 whole entry): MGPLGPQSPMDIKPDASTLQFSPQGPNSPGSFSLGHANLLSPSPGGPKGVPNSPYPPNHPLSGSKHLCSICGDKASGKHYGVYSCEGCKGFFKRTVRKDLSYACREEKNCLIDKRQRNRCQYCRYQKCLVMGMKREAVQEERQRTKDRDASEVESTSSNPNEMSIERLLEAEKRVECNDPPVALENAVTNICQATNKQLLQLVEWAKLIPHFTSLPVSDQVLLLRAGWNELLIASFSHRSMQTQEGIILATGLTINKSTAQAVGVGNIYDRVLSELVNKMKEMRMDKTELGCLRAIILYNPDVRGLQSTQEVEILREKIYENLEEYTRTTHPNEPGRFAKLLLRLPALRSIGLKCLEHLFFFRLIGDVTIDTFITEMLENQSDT
Description: Binding affinity to Anthonomus grandis ecdysone receptor (EcR). It is filed as protein-complex assay.

Assay [2] has as its target T2, Ecdysone receptor (Locusta migratoria, UniProt O97095+Q6V7U7).
T2 sequence (O97095 whole entry): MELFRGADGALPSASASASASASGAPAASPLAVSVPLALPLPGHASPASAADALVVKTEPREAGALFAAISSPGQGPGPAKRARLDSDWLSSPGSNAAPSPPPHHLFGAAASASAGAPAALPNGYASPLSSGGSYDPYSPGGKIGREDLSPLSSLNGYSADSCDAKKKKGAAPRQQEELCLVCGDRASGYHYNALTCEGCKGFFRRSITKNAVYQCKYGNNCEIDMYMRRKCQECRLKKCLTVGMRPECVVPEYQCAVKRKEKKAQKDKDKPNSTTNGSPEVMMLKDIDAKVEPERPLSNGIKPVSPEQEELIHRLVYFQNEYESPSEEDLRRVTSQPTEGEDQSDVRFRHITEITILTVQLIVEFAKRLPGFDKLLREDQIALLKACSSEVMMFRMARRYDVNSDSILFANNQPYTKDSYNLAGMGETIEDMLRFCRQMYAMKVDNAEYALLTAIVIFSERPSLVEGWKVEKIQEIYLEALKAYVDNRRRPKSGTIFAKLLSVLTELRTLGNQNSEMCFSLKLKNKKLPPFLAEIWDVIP
T2 sequence (Q6V7U7 whole entry): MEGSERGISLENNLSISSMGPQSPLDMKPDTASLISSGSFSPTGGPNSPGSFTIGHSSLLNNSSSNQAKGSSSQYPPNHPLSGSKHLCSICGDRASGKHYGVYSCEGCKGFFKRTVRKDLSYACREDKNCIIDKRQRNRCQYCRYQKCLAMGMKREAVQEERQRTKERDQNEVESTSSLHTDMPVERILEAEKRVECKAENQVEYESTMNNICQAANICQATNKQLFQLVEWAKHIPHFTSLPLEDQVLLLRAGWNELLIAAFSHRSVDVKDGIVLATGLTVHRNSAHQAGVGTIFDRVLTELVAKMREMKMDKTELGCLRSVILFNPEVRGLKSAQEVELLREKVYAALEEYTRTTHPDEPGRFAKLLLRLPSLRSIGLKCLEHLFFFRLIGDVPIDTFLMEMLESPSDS
Description: Binding affinity to Locusta migratoria ecdysone receptor (EcR). It is filed as protein-complex assay.

Turning to `CCc1ccc(C(=O)NN(C(=O)c2cc(C)cc(C)c2)C(C)(C)C)cc1` [TEBUFENOZIDE], the Ki in assay [1] was 12.6 µM; in assay [2], 100 µM.
